In patent US20240150293A1, “SPIROCYCLOHEXANE DERIVATIVES, PHARMACEUTICAL COMPOSITIONS CONTAINING THEM AND THEIR USES AS ANTI-APOPTOTIC INHIBITORS” (LES LABORATOIRES SERVIER, priority 2021, published 2024) one finds Ki data, which are given here for 25 compounds.

The Ki is a dissociation constant, usually derived from enzyme kinetics or from competition with a known ligand.

Chain of Mcl-1 protein (Q07820 whole entry): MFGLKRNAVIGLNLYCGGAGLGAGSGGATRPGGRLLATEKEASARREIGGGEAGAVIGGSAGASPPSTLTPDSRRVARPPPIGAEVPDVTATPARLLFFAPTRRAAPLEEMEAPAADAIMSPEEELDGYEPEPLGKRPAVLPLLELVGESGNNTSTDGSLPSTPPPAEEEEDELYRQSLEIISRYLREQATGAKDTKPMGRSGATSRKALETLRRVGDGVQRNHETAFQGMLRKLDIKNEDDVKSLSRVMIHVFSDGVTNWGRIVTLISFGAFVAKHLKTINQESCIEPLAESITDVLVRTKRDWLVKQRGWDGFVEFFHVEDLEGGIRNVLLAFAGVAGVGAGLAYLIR

The assay deals with Mcl-1 protein (UniProtKB Q07820) (Homo sapiens (Human), UniProt Q07820). Description: Inhibition of Mcl-1 by the fluorescence polarisation assay (Example A, Method A). The conditions noted are these: fluorescence polarization assay. Format: binding. The protocol:
The relative binding potency of each compound was determined via Fluorescence Polarisation (FP). The method utilised a Fluorescein labelled ligand (Fluorescein-βAla-Ahx-A-REIGAQLRRMADDLNAQY-OH; MW 2,765) which binds to the Mcl-1 protein (such that Mcl-1 corresponds to the UniProtKB® primary accession number: Q07820) leading to an increased anisotropy measured in milli-polarisation (mP) units using a reader. The addition of a compound which binds competitively to the same site as the ligand will result in a greater proportion of unbound ligand in the system indicated by a decrease in mP units.
An 11 point serial dilution of each compound was prepared in DMSO and 2 μl transferred into flat bottomed, low binding, 384-well plate (final DMSO concentration 5%). 38 μl of buffer containing the Fluorescein labelled ligand (final concentration 1 nM) and Mcl-1 protein (final concentration 5 nM) was then added. Buffer components were 10 mM 4-(2-hydroxyethyl)-1-piperazineethanesulfonic acid [HEPES], 150 mM NaCl, pH 7.4 with the addition of 0.05% Tween 20.
Assay plates were incubated for 2 hours at room temperature before FP was measured on a […] Synergy Neo reader ([…], Cut off 510 nm) and mP units calculated. The binding of increasing doses of test compound was expressed as a percentage reduction in mP compared to a window established between ‘5% DMSO only’ and ‘100% inhibition’ controls. 11-point dose response curves were plotted with XL-Fit software using a 4-Parameter Logistic Model (Sigmoidal Dose-Response Model) and the inhibitory concentrations that gave a 50% reduction in mP (IC50) were determined. The Ki values were determined from the IC50 values according to Cer et al, Nucleic Acids Res, 2009, 37 (WebServer issue): W441-W445. Inhibition constants (Ki) are determined from complete binding inhibition curves (cKi) or from estimated from incomplete binding inhibition curves (eKi) in most cases due to low activity.
Background: In fluorescence polarisation assays a small probe gives low polarisation when free and higher when bound to something large.
With `O=C(O)[C@]1(Nc2cccc(Cl)c2)CC[C@@]2(CC1)c1ccccc1CC2[C@H]1C[C@@H]1COc1cccnc1` (single isomer, unassigned) [Example 116, (1r,4r)-4-(3-chloroanilino)-2′-[(1R*,2S*)-2-{[(pyridin-3-yl)oxy]methyl}cyclopropyl]-2′,3′-dihydrospiro[cyclohexane-1,1′-indene]-4-carboxylic acid], the Ki came to 0.882 µM.
With `O=C(O)C1(Nc2cccc(Br)c2)CCC2(CC1)c1ccccc1CC2CCCc1ccccc1` (single isomer, unassigned) [Example 150, (1r,4r)-4-(3-bromoanilino)-2′-(3-phenylpropyl)-2′,3′-dihydrospiro[cyclohexane-1,1′-indene]-4-carboxylic acid] the figure was 0.226 µM; with `O=C(O)C1(Nc2cccc(Br)c2)CCC2(CC1)c1ccccc1CC2CCCc1ccccc1` (single isomer, unassigned) [Example 151, (1r,4r)-4-(3-bromoanilino)-2′-(3-phenylpropyl)-2′,3′-dihydrospiro[cyclohexane-1,1′-indene]-4-carboxylic acid], 1.34 µM.
Take `C[C@H]1c2ccccc2[C@]2(CC[C@@](Nc3cccc(Cl)c3)(C(=O)O)CC2)[C@H]1C` (single isomer, unassigned) [Example 208, (1r,2′R*,3'S*,4r)-4-(3-chloroanilino)-2′,3′-dimethyl-2′,3′-dihydrospiro[cyclohexane-1,1′-indene]-4-carboxylic acid]: the Ki was determined as 31.6 µM.
Regarding `O=C(O)[C@]1(Nc2cccc(Br)c2)CC[C@]2(CC1)c1ccccc1CC2c1ccccc1` (single isomer, unassigned) [Example 210, (1s,4s)-4-(3-bromoanilino)-2′-phenyl-2′,3′-dihydrospiro[cyclohexane-1,1′-indene]-4-carboxylic acid], the Ki was 89 µM.
With `O=C(O)C1(Nc2cccc(Br)c2)CCC2(CC1)c1ccccc1CC2c1nccs1` (single isomer, unassigned) [Example 223, 4-(3-bromoanilino)-2′-(1,3-thiazol-2-yl)-2′,3′-dihydrospiro[cyclohexane-1,1′-indene]-4-carboxylic acid] the figure was 14.3 µM; with `Cc1noc(C)c1C1Cc2ccccc2C12CCC(Nc1cccc(Br)c1)(C(=O)O)CC2` (single isomer, unassigned) [Example 231, 4-(3-bromoanilino)-2′-(3,5-dimethyl-1,2-oxazol-4-yl)-2′,3′-dihydrospiro[cyclohexane-1,1′-indene]-4-carboxylic acid], 7.72 µM.
With `O=C(O)C1(Nc2cccc(Br)c2)CCC2(CC1)C(c1ccc(Cl)c(Cl)c1)=Cc1ccccc12` (single isomer, unassigned) [Example 233, 4-(3-bromoanilino)-2′-(3,4-dichlorophenyl)spiro[cyclohexane-1,1′-indene]-4-carboxylic acid] the figure was 44 µM; with `Cc1ccc(C2=Cc3ccccc3C23CCC(Nc2cccc(Br)c2)(C(=O)O)CC3)cc1Cl` (single isomer, unassigned) [Example 234, 4-(3-bromoanilino)-2′-(3-chloro-4-methylphenyl)spiro[cyclohexane-1,1′-indene]-4-carboxylic acid], 115 µM; with `Cc1cc(C2=Cc3ccccc3C23CCC(Nc2cccc(Br)c2)(C(=O)O)CC3)ccc1Cl` (single isomer, unassigned) [Example 235, 4-(3-bromoanilino)-2′-(4-chloro-3-methylphenyl)spiro[cyclohexane-1,1′-indene]-4-carboxylic acid], 136 µM.
With `O=C(O)C1(Nc2cccc(Br)c2)CCC2(CC1)C(c1cc(Cl)cc(Cl)c1)=Cc1ccccc12` (single isomer, unassigned) [Example 236, 4-(3-bromoanilino)-2′-(3,5-dichlorophenyl)spiro[cyclohexane-1,1′-indene]-4-carboxylic acid], the Ki amounted to 27.1 µM.
With `COc1cc(OC)cc(C2=Cc3ccccc3C23CCC(Nc2cccc(Br)c2)(C(=O)O)CC3)c1` (single isomer, unassigned) [Example 237, 4-(3-bromoanilino)-2′-(3,5-dimethoxyphenyl)spiro[cyclohexane-1,1′-indene]-4-carboxylic acid] the figure was 89 µM; with `Cc1cc(C)cc(C2=Cc3ccccc3C23CCC(Nc2cccc(Br)c2)(C(=O)O)CC3)c1` (single isomer, unassigned) [Example 238, 4-(3-bromoanilino)-2′-(3,5-dimethylphenyl)spiro[cyclohexane-1,1′-indene]-4-carboxylic acid], 57.8 µM; with `COc1ccc(C2Cc3ccccc3[C@]23CC[C@@](Nc2cccc(Cl)c2)(C(=O)O)CC3)cc1C` (single isomer, unassigned) [Example 242, (1r,4r)-4-(3-chloroanilino)-2′-(4-methoxy-3-methylphenyl)-2′,3′-dihydrospiro[cyclohexane-1,1′-indene]-4-carboxylic acid], 1.21 µM.
With `COc1ccc(C2Cc3ccccc3[C@]23CC[C@@](Nc2cccc(Cl)c2)(C(=O)O)CC3)cc1C` (single isomer, unassigned) [Example 243, (1r,4r)-4-(3-chloroanilino)-2′-(4-methoxy-3-methylphenyl)-2′,3′-dihydrospiro[cyclohexane-1,1′-indene]-4-carboxylic acid] the figure was 0.273 µM; with `COc1ccc(C2Cc3ccccc3[C@]23CC[C@@](Nc2cccc(Cl)c2)(C(=O)O)CC3)c(C)c1` (single isomer, unassigned) [Example 254, (1r,4r)-4-(3-chloroanilino)-2′-(4-methoxy-2-methylphenyl)-2′,3′-dihydrospiro[cyclohexane-1,1′-indene]-4-carboxylic acid], 2.17 µM; with `COc1ccc(C2Cc3ccccc3[C@]23CC[C@@](Nc2cccc(Cl)c2)(C(=O)O)CC3)c(C)c1` (single isomer, unassigned) [Example 255, (1r,4r)-4-(3-chloroanilino)-2′-(4-methoxy-2-methylphenyl)-2′,3′-dihydrospiro[cyclohexane-1,1′-indene]-4-carboxylic acid], 11.6 µM.
With `COc1ccc(C2Cc3ccccc3[C@]23CC[C@@](Nc2ccccc2)(C(=O)O)CC3)c(C)c1` (single isomer, unassigned) [Example 256, (1r,4r)-4-anilino-2′-(4-methoxy-2-methylphenyl)-2′,3′-dihydrospiro[cyclohexane-1,1′-indene]-4-carboxylic acid] the figure was 24.2 µM; with `COc1ccc(C2Cc3ccccc3[C@]23CC[C@@](Nc2ccccc2)(C(=O)O)CC3)c(C)c1` (single isomer, unassigned) [Example 257, (1r,4r)-4-anilino-2′-(4-methoxy-2-methylphenyl)-2′,3′-dihydrospiro[cyclohexane-1,1′-indene]-4-carboxylic acid], 40.4 µM; with `COc1ccc(Cl)c(C2Cc3ccccc3[C@]23CC[C@@](Nc2cccc(Cl)c2)(C(=O)O)CC3)c1` (single isomer, unassigned) [Example 258, (1r,4r)-4-(3-chloroanilino)-2′-(2-chloro-5-methoxyphenyl)-2′,3′-dihydrospiro[cyclohexane-1,1′-indene]-4-carboxylic acid], 2.37 µM.
Take `COc1ccc(Cl)c(C2Cc3ccccc3[C@]23CC[C@@](Nc2cccc(Cl)c2)(C(=O)O)CC3)c1` (single isomer, unassigned) [Example 259, (1r,4r)-4-(3-chloroanilino)-2′-(2-chloro-5-methoxyphenyl)-2′,3′-dihydrospiro[cyclohexane-1,1′-indene]-4-carboxylic acid]: the Ki stood at 9.97 µM.
With `COc1ccc(Cl)c(C2Cc3ccccc3[C@]23CC[C@@](Nc2ccccc2)(C(=O)O)CC3)c1` (single isomer, unassigned) [Example 260, (1r,4r)-4-anilino-2′-(2-chloro-5-methoxyphenyl)-2′,3′-dihydrospiro[cyclohexane-1,1′-indene]-4-carboxylic acid] the figure was 90.1 µM; with `COc1ccc(Cl)c(C2Cc3ccccc3[C@]23CC[C@@](Nc2ccccc2)(C(=O)O)CC3)c1` (single isomer, unassigned) [Example 261, (1r,4r)-4-anilino-2′-(2-chloro-5-methoxyphenyl)-2′,3′-dihydrospiro[cyclohexane-1,1′-indene]-4-carboxylic acid], 9.4 µM.
With `Cc1ccc(C2Cc3ccccc3C23CCC(Nc2cccc(Br)c2)(C(=O)O)CC3)s1` (single isomer, unassigned) [Example 262, 4-(3-bromoanilino)-2′-(5-methylthiophen-2-yl)-2′,3′-dihydrospiro[cyclohexane-1,1′-indene]-4-carboxylic acid] the figure was 0.236 µM.
With `Cc1ccc(C2Cc3ccccc3C23CCC(Nc2cccc(Br)c2)(C(=O)O)CC3)s1` (single isomer, unassigned) [Example 263, 4-(3-bromoanilino)-2′-(5-methylthiophen-2-yl)-2′,3′-dihydrospiro[cyclohexane-1,1′-indene]-4-carboxylic acid] the figure was 5.02 µM.
